# Source: US10538498B2, “1,3,4-oxadiazole sulfonamide derivative compounds as histone deacetylase 6 inhibitor, and the pharmaceutical composition comprising the same” (Chong Kun Dang Pharmaceutical Corp., priority 2015, dated 2020)
# Target: T1, human recombinant HDAC6 (Homo sapiens, UniProt Q9UBN7)
# T1 construct: purchased Calbiochem 382180
# T1 sequence (Q9UBN7 1-1215): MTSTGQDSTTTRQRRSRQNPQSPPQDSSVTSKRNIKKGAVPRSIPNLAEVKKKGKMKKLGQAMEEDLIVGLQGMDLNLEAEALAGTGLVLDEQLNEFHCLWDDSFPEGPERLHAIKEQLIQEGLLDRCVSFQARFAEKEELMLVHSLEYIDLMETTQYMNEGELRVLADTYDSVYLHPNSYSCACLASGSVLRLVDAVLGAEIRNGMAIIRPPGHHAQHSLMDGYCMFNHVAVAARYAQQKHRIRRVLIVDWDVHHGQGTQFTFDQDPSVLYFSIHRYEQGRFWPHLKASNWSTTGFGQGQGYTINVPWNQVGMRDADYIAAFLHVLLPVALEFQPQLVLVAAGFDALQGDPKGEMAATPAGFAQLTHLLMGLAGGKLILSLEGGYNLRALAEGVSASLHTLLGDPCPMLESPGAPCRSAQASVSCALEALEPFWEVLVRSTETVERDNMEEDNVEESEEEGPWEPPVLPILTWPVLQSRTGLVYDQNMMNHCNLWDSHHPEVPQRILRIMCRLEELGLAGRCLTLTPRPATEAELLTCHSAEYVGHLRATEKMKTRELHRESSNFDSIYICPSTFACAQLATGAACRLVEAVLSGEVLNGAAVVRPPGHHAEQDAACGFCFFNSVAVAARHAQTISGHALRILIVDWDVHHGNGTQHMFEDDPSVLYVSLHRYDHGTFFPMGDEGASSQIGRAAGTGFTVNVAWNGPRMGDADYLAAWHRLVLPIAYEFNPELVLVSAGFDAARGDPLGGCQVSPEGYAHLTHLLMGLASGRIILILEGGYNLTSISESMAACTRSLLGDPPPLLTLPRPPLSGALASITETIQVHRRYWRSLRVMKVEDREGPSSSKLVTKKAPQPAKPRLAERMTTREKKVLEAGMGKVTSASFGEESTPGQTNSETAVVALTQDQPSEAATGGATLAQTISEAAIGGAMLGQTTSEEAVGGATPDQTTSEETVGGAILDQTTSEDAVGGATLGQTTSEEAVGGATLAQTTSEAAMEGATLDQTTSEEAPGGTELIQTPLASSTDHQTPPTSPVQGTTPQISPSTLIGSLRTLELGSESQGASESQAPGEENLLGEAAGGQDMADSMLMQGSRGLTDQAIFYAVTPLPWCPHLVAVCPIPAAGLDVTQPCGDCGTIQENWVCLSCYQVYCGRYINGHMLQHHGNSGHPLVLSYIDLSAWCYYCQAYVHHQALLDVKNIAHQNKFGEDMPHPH
# Assay: HDAC6 enzyme activity inhibition assay (HDAC Fluorimetric Drug Discovery Kit)
# Assay type: biochemical
# Conditions: for HDAC6 selectivity (fold): HDAC1 vs HDAC6; for IC50: same protocol as the HDAC1 enzyme activity test
# Method in brief: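 IC50s derived from fluorescence (Ex 360, Em 460) read after a 30-min developer step. Beforehand, compounds in 5-fold dilution series reacted 60 min at 30° C with 0.3 μg human recombinant enzyme and 10 μM Fluor de Lys-SIRT1 substrate.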
HDAC6 selectivity (fold),IC50 [nM],Compound
2724,36.7,"CC(C)N1CC(N2CCC(S(=O)(=O)N(Cc3ccc(-c4nnc(C(F)F)o4)cc3)c3cccc(Cl)c3)CC2)C1 [Compound 11778, N-(3-chlorophenyl)-N-(4-(5-(difluoromethyl)-1,3,4-oxadiazol-2-yl)benzyl)-1-(1-isopropylazetidin-3-yl)piperidine-4-sulfonamide]"
2493,40.1,"CC(=O)N1CC(N2CCC(S(=O)(=O)N(Cc3ccc(-c4nnc(C(F)F)o4)cc3)c3cccc(Cl)c3)CC2)C1 [Compound 11779, 1-(1-acetylazetidin-3-yl)-N-(3-chlorophenyl)-N-(4-(5-(difluoromethyl)-1,3,4-oxadiazol-2-yl)benzyl)piperidine-4-sulfonamide]"
5319,18.8,"CC(C)N1CC(N2CCC(S(=O)(=O)N(Cc3ccc(-c4nnc(C(F)F)o4)cn3)c3cccc(Cl)c3)CC2)C1 [Compound 11781, N-(3-chlorophenyl)-N-((5-(5-(difluoromethyl)-1,3,4-oxadiazol-2-yl)pyridin-2-yl)methyl)-1-(1-isopropylazetidin-3-yl)piperidine-4-sulfonamide]"
4032,24.8,"CCC(=O)N1CC(N2CCC(S(=O)(=O)N(Cc3ccc(-c4nnc(C(F)F)o4)cn3)c3cccc(Cl)c3)CC2)C1 [Compound 11782, N-(3-chlorophenyl)-N-((5-(5-(difluoromethyl)-1,3,4-oxadiazol-2-yl)pyridin-2-yl)methyl)-1-(1-propionylazetidin-3-yl)piperidine-4-sulfonamide]"
1440,69.4,"O=C(C1CC1)N1CC(N2CCC(S(=O)(=O)N(Cc3ccc(-c4nnc(C(F)F)o4)cc3)c3cccc(Cl)c3)CC2)C1 [Compound 11783, N-(3-chlorophenyl)-1-(1-(cyclopropanecarbonyl)azetidin-3-yl)-N-(4-(5-(difluoromethyl)-1,3,4-oxadiazol-2-yl)benzyl)piperidine-4-sulfonamide]"
3154,31.7,"O=C(C1CC1)N1CC(N2CCC(S(=O)(=O)N(Cc3ccc(-c4nnc(C(F)F)o4)cn3)c3cccc(Cl)c3)CC2)C1 [Compound 11784, N-(3-chlorophenyl)-1-(1-(cyclopropanecarbonyl)azetidin-3-yl)-N-((5-(5-(difluoromethyl)-1,3,4-oxadiazol-2-yl)pyridin-2-yl)methyl)piperidine-4-sulfonamide]"
2092,47.8,"CN1CC(N2CCC(S(=O)(=O)N(Cc3ccc(-c4nnc(C(F)F)o4)cc3)c3cccc(Cl)c3)CC2)C1 [Compound 11785, N-(3-chlorophenyl)-N-(4-(5-(difluoromethyl)-1,3,4-oxadiazol-2-yl)benzyl)-1-(1-methylazetidin-3-yl)piperidine-4-sulfonamide]"
2227,44.6,"COCC(C)N1CCC(S(=O)(=O)N(Cc2ccc(-c3nnc(C(F)F)o3)cn2)c2ccccc2)CC1 (stereo not drawn) [Compound 11790, N-((5-(5-(difluoromethyl)-1,3,4-oxadiazol-2-yl)pyridin-2-yl)methyl)-1-(1-methoxypropan-2-yl)-N-phenylpiperidine-4-sulfonamide]"
2114,47.3,"O=S(=O)(C1CCN(C2CC(O)C2)CC1)N(Cc1ccc(-c2nnc(C(F)F)o2)cn1)c1ccccc1 (stereo not drawn) [Compound 11791, N-((5-(5-(difluoromethyl)-1,3,4-oxadiazol-2-yl)pyridin-2-yl)methyl)-1-(3-hydroxycyclobutyl)-N-phenylpiperidine-4-sulfonamide]"
1218,82.1,"Cc1cccc(N(Cc2ccc(-c3nnc(C(F)F)o3)cc2)S(=O)(=O)C2CCN(C3CC(O)C3)CC2)c1 (stereo not drawn) [Compound 11792, N-(4-(5-(difluoromethyl)-1,3,4-oxadiazol-2-yl)benzyl)-1-(3-hydroxycyclobutyl)-N-(m-tolyl)piperidine-4-sulfonamide]"
1718,58.2,"O=S(=O)(C1CCN(C2CC(O)C2)CC1)N(Cc1ccc(-c2nnc(C(F)F)o2)cc1)c1cccc(Cl)c1 (stereo not drawn) [Compound 11793, N-(3-chlorophenyl)-N-(4-(5-(difluoromethyl)-1,3,4-oxadiazol-2-yl)benzyl)-1-(3-hydroxycyclobutyl)piperidine-4-sulfonamide]"
2192,45.6,"O=S(=O)(C1CCN(C2CCC2)CC1)N(Cc1ccc(-c2nnc(C(F)F)o2)cn1)c1ccccc1 [Compound 11794, 1-cyclobutyl-N-((5-(5-(difluoromethyl)-1,3,4-oxadiazol-2-yl)pyridin-2-yl)methyl)-N-phenylpiperidine-4-sulfonamide]"

# Further lines, the compound ahead of its results:
Compound,HDAC6 selectivity (fold),IC50 [nM]
"CCC(=O)N1CC(N2CCC(S(=O)(=O)N(Cc3ccc(-c4nnc(C(F)F)o4)cc3)c3cccc(Cl)c3)CC2)C1 [Compound 11780, N-(3-chlorophenyl)-N-(4-(5-(difluoromethyl)-1,3,4-oxadiazol-2-yl)benzyl)-1-(1-propionylazetidin-3-yl)piperidine-4-sulfonamide]",1893,52.8
"O=S(=O)(CCN1CCC(F)CC1)N(Cc1ccc(-c2nnc(C(F)F)o2)cn1)c1ccc(F)c(Cl)c1 [Compound 11786, N-(3-chloro-4-fluorophenyl)-N-((5-(5-(difluoromethyl)-1,3,4-oxadiazol-2-yl)pyridin-2-yl)methyl)-2-(4-fluoropiperidin-1-yl)ethane-1-sulfonamide]",1828,54.7
"O=S(=O)(CCN1CC[C@H](F)C1)N(Cc1ccc(-c2nnc(C(F)F)o2)cc1)c1ccccc1 [Compound 11795, (S)—N-(4-(5-(difluoromethyl)-1,3,4-oxadiazol-2-yl)benzyl)-2-(3-fluoropyrrolidin-1-yl)-N-phenylethane-1-sulfonamide]",1466,68.2
"O=S(=O)(CCN(Cc1ccccc1)Cc1ccccc1)N(Cc1ccc(-c2nnc(C(F)F)o2)cc1)c1ccccc1 [Compound 11796, 2-(dibenzylamino)-N-(4-(5-(difluoromethyl)-1,3,4-oxadiazol-2-yl)benzyl)-N-phenylethane-1-sulfonamide]",56,1780
"CN(C)CCS(=O)(=O)N(Cc1ccc(-c2nnc(C(F)F)o2)cc1)c1ccccc1 [Compound 11797, N-(4-(5-(difluoromethyl)-1,3,4-oxadiazol-2-yl)benzyl)-2-(dimethylamino)-N-phenylethane-1-sulfonamide]",821,122
"CCN(CC)CCS(=O)(=O)N(Cc1ccc(-c2nnc(C(F)F)o2)cc1)c1ccccc1 [Compound 11798, 2-(diethylamino)-N-(4-(5-(difluoromethyl)-1,3,4-oxadiazol-2-yl)benzyl)-N-phenylethane-1-sulfonamide]",538,186
"O=S(=O)(CCN1CC(O)C1)N(Cc1ccc(-c2nnc(C(F)F)o2)cc1)c1ccccc1 [Compound 11799, N-(4-(5-(difluoromethyl)-1,3,4-oxadiazol-2-yl)benzyl)-2-(3-hydroxyazetidine-1-yl)-N-phenylethane-1-sulfonamide]",516,194
"O=S(=O)(CCN1CC[C@H](O)C1)N(Cc1ccc(-c2nnc(C(F)F)o2)cc1)c1ccccc1 [Compound 11800, (S)—N-(4-(5-(difluoromethyl)-1,3,4-oxadiazol-2-yl)benzyl)-2-(3-hydroxypyrrolidin-1-yl)-N-phenylethane-1-sulfonamide]",2252,44.4
"O=S(=O)(CCN1CC[C@@H](O)C1)N(Cc1ccc(-c2nnc(C(F)F)o2)cc1)c1ccccc1 [Compound 11801, (R)—N-(4-(5-(difluoromethyl)-1,3,4-oxadiazol-2-yl)benzyl)-2-(3-hydroxypyrrolidin-1-yl)-N-phenylethane-1-sulfonamide]",2941,34
